“And” between values parts separate entries of the source, which are not always exact repeats. Equal entries are not always repeated.
Legend:
[1] = biological target: T1, human GPR119 (Homo sapiens, UniProt Q8TDV5); experiment: β-Lactamase reporter functional assay (hGPR119 HEK293-CRE beta-lactamase cells); type: cell-based; parameters: host or cells: HEK293-CRE beta-lactamase; Emax: dose or concentration left out as unconfirmed
T1 sequence (Q8TDV5 1-335): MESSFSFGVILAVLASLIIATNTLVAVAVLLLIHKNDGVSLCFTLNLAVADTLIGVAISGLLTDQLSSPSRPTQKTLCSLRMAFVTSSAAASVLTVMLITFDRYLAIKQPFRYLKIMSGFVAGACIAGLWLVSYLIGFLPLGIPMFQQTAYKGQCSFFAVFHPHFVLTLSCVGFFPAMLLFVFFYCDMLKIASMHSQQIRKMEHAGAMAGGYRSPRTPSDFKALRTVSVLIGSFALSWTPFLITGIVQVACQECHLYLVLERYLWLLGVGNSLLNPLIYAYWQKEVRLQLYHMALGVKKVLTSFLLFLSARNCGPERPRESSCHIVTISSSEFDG
Description: The assay for GPR119 agonists utilizes a cell-based (hGPR119 HEK293-CRE beta-lactamase) reporter construct where agonist activation of human GPR119 is coupled to beta-lactamase production via a cyclic AMP response element (CRE). GPR119 activity is then measured utilizing a FRET-enabled beta-lactamase substrate, CCF4-AM (Live Blazer FRET-B/G Loading kit, Invitrogen cat #K1027). Specifically, hGPR119-HEK-CRE-beta-lactamase cells (Invitrogen 2.5×10^7/mL) were removed from liquid nitrogen storage, and diluted in plating medium (Dulbecco's modified Eagle medium high glucose (DMEM; Gibco Cat # 11995-065), 10% heat inactivated fetal bovine serum (HIFBS; Sigma Cat # F4135), 1×MEM Nonessential amino acids (Gibco Cat # 15630-080), 25 mM HEPES pH 7.0 (Gibco Cat # 15630-080), 200 nM potassium clavulanate (Sigma Cat # P3494). The cell concentration was adjusted using cell plating medium and 50 microL of this cell suspension ([…]) was added into each well of a black, clear bottom, poly-d-lysine coated 384-well plate (Greiner Bio-One cat# 781946) and incubated at 37 degrees Celsius in a humidified environment containing 5% carbon dioxide. After 4 hours the plating medium was removed and replaced with 40 microL of assay medium (Assay medium is plating medium without potassium clavulanate and HIFBS). Varying concentrations of each compound to be tested was then added in a volume of 10 microL (final DMSO ≦0.5%) and the cells were incubated for 16 hours at 37 degrees Celsius in a humidified environment containing 5% carbon dioxide. Plates were removed from the incubator and allowed to equilibrate to room temperature for approximately 15 minutes. 10 microL of 6×CCF4/AM working dye solution (prepared according to instructions in the Live Blazer FRET-B/G Loading kit, Invitrogen cat #K1027) was added per well and incubated at room temperature for 2 hours in the dark. Fluorescence was measured on an EnVision fluorimetric plate reader, excitation 405 nm, emission 460 nm/535 nm. EC50 determinations were made from agonist-response curves analyzed with a curve fitting program using a 4-parameter logistic dose-response equation.

[2] = biological target: T1, human GPR119; experiment: GPR119 radioligand binding assay ([3H]-Compound A or B, membranes of HEK 293FT cells expressing hGPR119); parameters: host or cells: HEK293-CRE beta-lactamase; conditions: calculated from IC50 with Cheng-Prusoff; each line a separate determination
Description: HEK 293FT cells (Invitrogen, Carlsbad, Calif.) were grown in a shake flask in 293Freestyle medium (Invitrogen) supplemented with 50 microg/mL neomycin and 10 mM HEPES (37C, 8% carbon dioxide, shaking). The cells were centrifuged gently (approximately 500×g, 10 minutes) and the pellet resuspended in a mixture of Dulbecco's PBS (minus Mg++/−Ca++) supplemented with 18% fetal bovine serum (Sigma Aldrich) and P1 virus such that the multiplicity of infection (MOI) was 10 and the final cell density was 1.3×10^6/mL (total volume 2.5 liters). The cells were transferred to a 5 liter Wave Bioreactor Wavebag (Wave Technologies, Mass.) and incubated for 4 hours at 27 degrees Celsius (17 rocks/min, 7 degrees platform angle); at the end of the incubation period, an equal volume (2.5 liters) of 293Freestyle medium supplemented with 30 mM sodium butyrate (Sigma Aldrich) was added (final concentration=15 mM), and the cells were grown for 20 hours (37 degrees Celsius, 8% CO2 [0.2 liters/min}, 25 rocks/minute, 7 degrees platform angle). Cells were harvested via centrifugation (3,000×g, 10 minutes), washed once on DPBS (minus Ca++/Mg++), resuspended in 0.25M sucrose, 25 mM HEPES, 0.5 mM EDTA, pH 7.4 and frozen at −80 degrees Celsius.
The frozen cells were thawed on ice and centrifuged at 700×g (1400 rpm) for 10 minutes at 4 degrees Celsius. The cell pellet was resuspended in 20 mL phosphate-buffered saline, and centrifuged at 1400 rpm for 10 minutes. The cell pellet was then resuspended in homogenization buffer (10 mM HEPES (Gibco #15630), pH 7.5, 1 mM EDTA (BioSolutions, #BIO260-15), 1 mM EGTA (Sigma, #E-4378), 0.01 mg/mL benzamidine (Sigma #B 6506), 0.01 mg/mL bacitracin (Sigma #B 0125), 0.005 mg/mL leupeptin (Sigma #L 8511), 0.005 mg/mL aprotinin (Sigma #A 1153)) and incubated on ice for 10 minutes. Cells were then lysed with 15 gentle strokes of a tight-fitting glass Dounce homogenizer. The homogenate was centrifuged at 1000×g (2200 rpm) for 10 minutes at 4 degrees Celsius. The supernatant was transferred into fresh centrifuge tubes on ice. The cell pellet was resuspended in homogenization buffer, and centrifuged again at 1000×g (2200 rpm) for 10 minutes at 4 degrees Celsius after which the supernatant was removed and the pellet resuspended in homogenization buffer. This process was repeated a third time, after which the supernatants were combined, Benzonase (Novagen # 71206) and MgCl2 (Fluka #63020) were added to final concentrations of 1 U/mL and 6 mM, respectively, and incubated on ice for one hour. The solution was then centrifuged at 25,000×g (15000 rpm) for 20 minutes at 4 degrees Celsius, the supernatant was discarded, and the pellet was resuspended in fresh homogenization buffer (minus Benzonase and MgCl2). After repeating the 25,000×g centrifugation step, the final membrane pellet was resuspended in homogenization buffer and frozen at −80 degrees Celsius. The protein concentration was determined using the Pierce BCA protein assay kit (Pierce reagents A #23223 and B #23224).
Test compounds were serially diluted in 100% DMSO (J. T. Baker #922401). 2 microL of each dilution was added to appropriate wells of a 96-well plate (each concentration in triplicate). Unlabeled Compound A (or Compound B), at a final concentration of 10 microM, was used to determine non-specific binding. [^3H]-Compound A (or [^3H]-Compound B) was diluted in binding buffer (50 mM Tris-HCl, pH 7.5, (Sigma #T7443), 10 mM MgCl2 (Fluka 63020), 1 mM EDTA (BioSolutions #BIO260-15), 0.15% bovine serum albumin (Sigma #A7511), 0.01 mg/mL benzamidine (Sigma #B 6506), 0.01 mg/mL bacitracin (Sigma #B 0125), 0.005 mg/mL leupeptin (Sigma #L 8511), 0.005 mg/mL aprotinin (Sigma #A 1153)) to a concentration of 60 nM, and 100 microL added to all wells of 96-well plate (Nalge Nunc # 267245). […]

[3] = biological target: T1, human GPR119; experiment: cAMP HTRF functional assay (hGPR119 HEK-CRE beta-lactamase cells); type: cell-based; parameters: host or cells: HEK293-CRE beta-lactamase
Description: GPR119 agonist activity was also determined with a cell-based assay utilizing an HTRF (Homogeneous Time-Resolved Fluorescence) cAMP detection kit (cAMP dynamic 2 Assay Kit; Cis Bio cat #62AM4PEC) that measures cAMP levels in the cell. The method is a competitive immunoassay between native cAMP produced by the cells and the cAMP labeled with the dye d2. The tracer binding is visualized by a Mab anti-cAMP labeled with Cryptate. The specific signal (i.e. energy transfer) is inversely proportional to the concentration of cAMP in either standard or sample.
Specifically, hGPR119 HEK-CRE beta-lactamase cells (Invitrogen 2.5×10^7/mL; the same cell line used in the beta-lactamase assay described above) are removed from cryopreservation and diluted in growth medium (Dulbecco's modified Eagle medium high glucose (DMEM; Gibco Cat # 11995-065), 1% charcoal dextran treated fetal bovine serum (CD serum; HyClone Cat # SH30068.03), 1×MEM Nonessential amino acids (Gibco Cat # 15630-080) and 25 mM HEPES pH 7.0 (Gibco Cat # 15630-080)). The cell concentration was adjusted to 1.5×10^5 cells/mL and 30 mLs of this suspension was added to a T-175 flask and incubated at 37 degrees Celsius in a humidified environment in 5% carbon dioxide. After 16 hours (overnight), the cells were removed from the T-175 flask (by rapping the side of the flask), centrifuged at 800×g and then re-suspended in assay medium (1×HBSS+CaCl2+MgCl2 (Gibco Cat # 14025-092) and 25 mM HEPES pH 7.0 (Gibco Cat # 15630-080)). The cell concentration was adjusted to 6.25×10^5 cells/mL with assay medium and 8 μl of this cell suspension (5000 cells) was added to each well of a white Greiner 384-well, low-volume assay plate (VWR cat #82051-458).
Varying concentrations of each compound to be tested were diluted in assay buffer containing 3-isobutyl-1-methylxanthin (IBMX; Sigma cat #15879) and added to the assay plate wells in a volume of 2 microL (final IBMX concentration was 400 microM and final DMSO concentration was 0.58%). Following 30 minutes incubation at room temperature, 5 microL of labeled d2 cAMP and 5 microL of anti-cAMP antibody (both diluted 1:20 in cell lysis buffer; as described in the manufacturers assay protocol) were added to each well of the assay plate. The plates were then incubated at room temperature and after 60 minutes, changes in the HTRF signal were read with an Envision 2104 multilabel plate reader using excitation of 330 nm and emissions of 615 and 665 nm. Raw data were converted to nM cAMP by interpolation from a cAMP standard curve (as described in the manufacturer's assay protocol) and EC50 determinations were made from an agonist-response curves analyzed with a curve fitting program using a 4-parameter logistic dose response equation.

Row | SMILES | EC50 ([1]; hGPR119 HEK293-CRE beta-lactamase cells, 16 h incubation, each line a separate determination, read-out: Human B-lactamase Functional EC50) [nM] | Emax ([1]; percent of maximal activity relative to standard GPR119 agonist at 10 micromolar, read-out: Intrinsic Activity (Human B-lactamase)) [%] | Ki [2] | EC50 ([3]; HTRF cAMP, 30 min, 400 microM IBMX, each line a separate determination) | Intrinsic Activity (Human cAMP) ([3]; percent of maximal activity relative to standard GPR119 agonist at 10 micromolar) [%] | Emax ([3]; percent of maximal activity relative to standard GPR119 agonist at 10 micromolar, read-out: Intrinsic Activity (Human cAMP)) [%]
1 | COc1c(OC2CCN(C(=O)OC(C)C)CC2)ncnc1N1CCc2cc(S(C)(=O)=O)ccc21 [Example 7, Isopropyl 4-({5-methoxy-6-[5-(methylsulfonyl)-2,3-dihydro-1H-indol-1-yl]pyrimidin-4-yl}oxy)piperidine-1-carboxylate] | 96.6 | 101 | 285 nM | – | – | –
2 | Cc1c(O[C@H]2[C@@H]3COC[C@H]2CN(C(=O)OC(C)(C)C)C3)ncnc1N1CCc2ncccc21 [Example 21, tert-Butyl (9-anti)-9-{[6-(2,3-dihydro-1H-pyrrolo[3,2-b]pyridin-1-yl)-5-methylpyrimidin-4-yl]oxy}-3-oxa-7-azabicyclo[3.3]nonane-7-carboxylate] | – | – | 26 nM and 25.6 nM | 107 nM and 87.8 nM | 45.2 | 49.8

Reference: US20100285145A1, “GPR 119 MODULATORS” (PFIZER INC, priority 2009, published 2010)
